We go through 17 compounds from US10517849B2, “LSD1 inhibitors and medical uses thereof” (Constellation Pharmaceuticals, Inc., priority 2016, dated 2019).

The target in one test is LSD1 (Homo sapiens (Human), UniProt O60341). In words: LSD1 TR-FRET Assay. It counts as biochemical. To be noted: biotinylated H3K4me1 peptide 4 μM, 10 nM LSD1, 40 nM FAD, 50 minutes at room temperature. The procedure:
LSD1 demethylase reactions were carried out in 50 mM HEPES pH 7.4, 100 mM NaCl, 1 mM DTT, 0.01% Tween-20, and 0.1 mg/mL BSA. All enzymatic reactions were performed for 50 minutes at room temperature in a 10-μL volume. Five microliters of 8 μM biotinylated H3K4me1 peptide solution was added to each well of a black 384 well, clear-bottom assay plate containing 80 nL compound (final concentration of 0.8% DMSO and 4 μM substrate). Reactions were initiated by the addition of a mixture containing 20 nM LSD1 and 80 nM FAD (5 μL). LSD1 and FAD final concentrations were 10 and 40 nM, respectively. Enzyme activity was stopped by the addition of 90 μL of high salt buffer consisting of 50 mM HEPES pH 7.4, 500 mM NaCl, 1 mM DTT, 0.01% Tween-20, and 0.1 mg/mL BSA. Ten microliters of the quenched reaction mixtures were transferred to a black 384 well ProxiPlate. Ten microliters of detection mixture was added to the ProxiPlate, Europium-labeled antibody and Streptavidin APC were used at final concentrations of 0.3 nM and 200 nM, respectively (total assay volume of 20 μL). Capture of the product peptide by the anti-H3K4me0 antibody and Streptavidin APC was allowed to proceed for 60 min at room temperature before measuring the TR-FRET signal. Plates were read on a Perkin Elmer EnVision. Percent inhibition was calculated using Max (no inhibitor) and Min (quenched with stop buffer) controls and inhibition curves plotted to determine IC50 values.
Background: TR-FRET usually uses a lanthanide donor and a delayed reading to cut background.

The subject of test [1] is LY-96 mRNA induction in MV4-11 cells. In words: LSD1 LY96 Quantigene Assay. To be noted: Homo sapiens, 16 h, Quantigene 2.0. It counts as cell-based. The procedure: MV4-11 cells were cultured at a density of 4×10^4 cells per well in a 96-well plates and treated with various doses inhibitor starting from 10 μM up to 0.0005 μM for 16 h. The LY-96 mRNA induction was quantified using the Quantigene 2.0 system (Affymetrix). The cells were lysed with Lysis Mixture containing Proteinase K. The working reagent for capturing the RNA was prepared according to the steps detailed in “Capturing Target RNA from Cultured Cell or Blood Lysates” in the Quantigene handbook. The subsequent hybridization with LY-96 probe, signal amplification and detection steps were performed as described in the manual. The chemiluminescence was read using Envision (PerkinElmer) and Abase (IDBS software) was used to plot the dose response curves and calculate IC50.

The next test concerns Kasumi-1. In words: Kasumi-1 GI50 Assay. The class given is cell-based. To be noted: Homo sapiens, 288 h; Kasumi-1 cells, 12 days, Cell Titer-Glo viability. The procedure: Cells were plated at 5,000 cells per well in 96 well tissue culture dishes containing tool compounds arrayed in a 10-point dose curve, ranging from […] with 4-fold dilutions, and split every fourth day at a fixed ratio to re-establish 5,000 cells/well density for DMSO-treated controls. Cell treatments were carried out for a total of 12 days. At each 4-day split, the viable cell numbers were determined using the Cell Titer-Glo luminescent cell viability assay (Promega, Madison, Wis. USA) using an EnVision® Multilabel Plate Reader (Perkin Elmer, Waltham, Mass. USA). GraphPad Prism 6 (GraphPad Software, Inc., La Jolla, Calif. USA) was used for curve fitting and determination of GI50 values.
In general terms: In ATP-based viability assays light output follows the ATP content of the culture.

Counter-ions that a name gives are not always drawn.

In turn, `CC/C(=C\c1ccccc1)[C@@H]1C[C@H]1NC1CC2(CCN(CCS(N)(=O)=O)CC2)C1` [Compound 23, 2-(2-(((1R,2S)-2-((E)-1-phenylbut-1-en-2-yl)cyclopropyl)amino)-7-azaspiro[3.5]nonan-7-yl)ethanesulfonamide dihydrochloride] came in with a half-inhibitory concentration (IC50) on LSD1 of under 100 nM. Also, the concentration for a half-maximal effect (EC50) in test [1] is under 100 nM. Besides, the GI50 in the test on Kasumi-1 is under 100 nM.
With `CC/C(=C\c1ccccc1)[C@@H]1C[C@H]1NC1CC2(CCN(CCO)CC2)C1` [Compound 11, 2-(2-(((1R,2S)-2-((E)-1-phenylbut-1-en-2-yl)cyclopropyl)amino)-7-azaspiro[3.5]nonan-7-yl)ethanol dihydrochloride], the IC50 on LSD1 is under 100 nM. The half-maximal effective concentration (EC50) in test [1] was under 100 nM. The GI50 in the test on Kasumi-1 is under 100 nM.
On to `CC/C(=C\c1ccccc1)[C@@H]1C[C@H]1NC1CC2(C1)CN(CCO)C2` [Compound 1, 2-(6-(((1R,2S)-2-((E)-1-phenylbut-1-en-2-yl)cyclopropyl)amino)-2-azaspiro[3.3]heptan-2-yl)ethanol], for which the IC50 against LSD1 is under 100 nM. In test [1], the EC50 was under 100 nM. For the same compound, the GI50 in the test on Kasumi-1 is under 100 nM.
On to `CC/C(=C\c1ccccc1)[C@@H]1C[C@H]1NC1CC2(C1)CN(CC(=O)NCCO)C2` [Compound 13, N-(2-hydroxyethyl)-2-(6-(((1R,2S)-2-((E)-1-phenylbut-1-en-2-yl)cyclopropyl)amino)-2-azaspiro[3.3]heptan-2-yl)acetamide bis(2,2,2-trifluoroacetate)], for which, on LSD1, the IC50 was under 100 nM. In test [1], this compound showed a concentration giving a half-maximal response (EC50) of under 100 nM. In addition, in the test with Kasumi-1, the concentration for 50% growth inhibition (GI50) is under 100 nM.
For the compound `CC/C(=C\c1ccccc1)[C@@H]1C[C@H]1NC1CC2(C1)CN(CCC(N)=O)C2` [Compound 22, 3-(6-(((1R,2S)-2-((E)-1-phenylbut-1-en-2-yl)cyclopropyl)amino)-2-azaspiro[3.3]heptan-2-yl)propanamide bis(2,2,2-trifluoroacetate)], the IC50 at LSD1 was under 100 nM. The same compound had an EC50 in test [1] of under 100 nM. In the test on Kasumi-1, the GI50 was under 100 nM.
On to `CC/C(=C\c1ccccc1)[C@@H]1C[C@H]1NC1CC2(C1)CN(CCS(N)(=O)=O)C2` [Compound 32], for which the IC50 at LSD1 was under 100 nM. Further, in test [1], the EC50 was under 100 nM. The GI50 in the test on Kasumi-1 is under 100 nM.
Turning to `CC/C(=C\c1ccccc1)[C@@H]1C[C@H]1NC1CC2(CCN(C[C@H](O)CO)CC2)C1` [Compound 20, (S)-3-(2-(((1R,2S)-2-((E)-1-phenylbut-1-en-2-yl)cyclopropyl)amino)-7-azaspiro[3.5]nonan-7-yl)propane-1,2-diol dihydrochloride], the EC50 in test [1] was under 100 nM. Besides, in the test with Kasumi-1, the GI50 was under 100 nM.
The compound `CC/C(=C\c1ccccc1)[C@@H]1C[C@H]1NC1CC2(C1)CN(CCNS(=O)(=O)C1CC1)C2` [Compound 6, N-(2-(6-(((1R,2S)-2-((E)-1-phenylbut-1-en-2-yl)cyclopropyl)amino)-2-azaspiro[3.3]heptan-2-yl)ethyl)cyclopropanesulfonamide bis(2,2,2-trifluoroacetate)] had an EC50 in test [1] of under 100 nM. For the same compound, in the test with Kasumi-1, the 50% growth inhibitory concentration (GI50) is under 100 nM.
At LSD1, `CC/C(=C\c1ccccc1)[C@@H]1C[C@H]1NC1CC2(C1)CN(C(CO)CO)C2` [Compound 2, 2-(6-(((1R,2S)-2-((E)-1-phenylbut-1-en-2-yl)cyclopropyl)amino)-2-azaspiro[3.3]heptan-2-yl)propane-1,3-diol] gave a 50% inhibitory concentration (IC50) of under 100 nM. This compound also showed an EC50 in test [1] of under 100 nM. Besides, the GI50 with Kasumi-1 was under 100 nM.
`CC/C(=C\c1ccccc1)[C@@H]1C[C@H]1NC1CC2(C1)CN(C(C)C(N)=O)C2` (stereo partly drawn) [Compound 30, 2-(6-(((1R,2S)-2-((E)-1-phenylbut-1-en-2-yl)cyclopropyl)amino)-2-azaspiro[3.3]heptan-2-yl)propanamide bis(2,2,2-trifluoroacetate)] returned a concentration for a half-maximal effect (EC50) in test [1] of under 100 nM. Besides, in the test on Kasumi-1, the GI50 was under 100 nM.
For the compound `CC/C(=C\c1ccccc1)[C@@H]1C[C@H]1NC1CC2(C1)CN(CCNS(C)(=O)=O)C2` [Compound 4, N-(2-(6-(((1R,2S)-2-((E)-1-phenylbut-1-en-2-yl)cyclopropyl)amino)-2-azaspiro[3.3]heptan-2-yl)ethyl)methanesulfonamide bis(2,2,2-trifluoroacetate)], the IC50 at LSD1 was under 100 nM. Moreover, in test [1], the EC50 is under 100 nM. In addition, the concentration for 50% growth inhibition (GI50) in the test on Kasumi-1 is under 100 nM.
In the case of `CC/C(=C\c1ccccc1)[C@@H]1C[C@H]1NC1CC2(C1)CN(CC(=O)N(C)C)C2` [Compound 28, N,N-dimethyl-2-(6-(((1R,2S )-2-((E)-1-phenylbut-1-en-2-yl)cyclopropyl)amino)-2-azaspiro[3.3]heptan-2-yl)acetamide bis(2,2,2-trifluoroacetate)], in test [1], the EC50 was under 100 nM. In addition, in the test with Kasumi-1, the concentration for 50% growth inhibition (GI50) is under 100 nM.
`CC/C(=C\c1ccccc1)[C@@H]1C[C@H]1NC1CC2(C1)CN(CC(C)(C)NS(C)(=O)=O)C2` [Compound 15, N-(2-methyl-1-(6-(((1R,2S)-2-((E)-1-phenylbut-1-en-2-yl)cyclopropyl)amino)-2-azaspiro[3.3]heptan-2-yl)propan-2-yl)methanesulfonamide bis(2,2,2-trifluoroacetate)]: the concentration giving a half-maximal response (EC50) in test [1] was under 100 nM. Moreover, the GI50 in the test with Kasumi-1 was under 100 nM.
In test [1], `CC/C(=C\c1ccccc1)[C@@H]1C[C@H]1NC1CC2(CCN(C[C@@H](C)O)CC2)C1` [Compound 16, (R)-1-(2-(((1R,2S)-2-((E)-1-phenylbut-1-en-2-yl)cyclopropyl)amino)-7-azaspiro[3.5]nonan-7-yl)propan-2-ol dihydrochloride] registered an EC50 of under 100 nM. Further, the GI50 with Kasumi-1 was under 100 nM.
In test [1], `CC/C(=C\c1ccccc1)[C@@H]1C[C@H]1NC1CC2(CCN(C(CO)CO)CC2)C1` [Compound 10, 2-(2-(((1R,2S)-2-((E)-1-phenylbut-1-en-2-yl)cyclopropyl)amino)-7-azaspiro[3.5]nonan-7-yl)propane-1,3-diol bis(2,2,2-trifluoroacetate)] yielded an EC50 of under 100 nM. In the test with Kasumi-1, the GI50 was under 100 nM.
Consider `CC/C(=C\c1ccccc1)[C@@H]1C[C@H]1NC1CC2(C1)CN(CC(=O)NS(C)(=O)=O)C2` [Compound 29, N-(methylsulfonyl)-2-(6-(((1R,2S)-2-((E)-1-phenylbut-1-en-2-yl)cyclopropyl)amino)-2-azaspiro[3.3]heptan-2-yl)acetamide bis(2,2,2-trifluoroacetate)], for which the half-maximal effective concentration (EC50) in test [1] was under 100 nM. Moreover, in the test with Kasumi-1, the concentration for 50% growth inhibition (GI50) was under 100 nM.
The compound `CC/C(=C\c1ccccc1)[C@@H]1C[C@H]1NC1CC2(CCN(CCOC)CC2)C1` [Compound 17, 7-(2-methoxyethyl)-N-((1R,2S)-2-((E)-1-phenylbut-1-en-2-yl)cyclopropyl)-7-azaspiro[3.5]nonan-2-amine dihydrochloride] had a half-inhibitory concentration (IC50) at LSD1 of under 100 nM. Also, the EC50 in test [1] was under 100 nM. In addition, the GI50 in the test on Kasumi-1 was under 100 nM.

What is called IC50 is the concentration that gives 50% inhibition. As a reminder, the EC50 is the concentration that produces a half-maximal response. Higher therefore signals lower potency in that assay. For orientation: GI50 means the concentration that inhibits growth by half.
